The values that follow come from paper PMC6646865, “Design and Synthesis of Imidazole and Triazole Pyrazoles as Mycobacterium Tuberculosis CYP121A1 Inhibitors” (ChemistryOpen, 2019).

Data set [1] has as its target T1, CYP121A1 (Mycobacterium tuberculosis, UniProt P9WPP7).
T1 construct: made in house
Description: biochemical. The class given is binding. The settings on record: for Soret peak shift: Soret maximum ligand-free to ligand-bound CYP121A1; for Kd: UV-vis optical titration, 3–5 μM CYP121A1, 25 °C, pH 7.85, triplicate; for Soret maxima shifting by: extent of the Soret absorbance red shift on binding.

Data set [2] concerns M. tuberculosis H37Rv. The experiment in a line: Antimycobacterial activity, REMA (Resazurin Microtiter Assay) MIC. The format is cell-based, Mycobacterium tuberculosis. Conditions: lowest concentration giving 90 % inhibition, 7 days 37 °C. In general terms: The colour change of resazurin is a common sign of viable cells or microbes.
Data set [3] has as its target T1, CYP121A1. Conditions: cited from earlier work; for Soret peak shift: lead compounds and cYY (type I shift for cYY); for Kd: lead compounds and natural substrate cYY; for Soret peak shift to: azole antifungal drugs binding Mtb CYP121A1.
The test system of data set [4] is M. tuberculosis H37Rv. Also noted: method as in PMID 29185746. Conditions: lead compounds; cited from earlier work.
Where [5] appears, read: Mycobacterium tuberculosis, H37RV, 168 h, read-out: MIC.

In brackets after ≈: the same amount, converted by molar mass. Like-named read-outs stand apart in the source and are kept apart here. Bounds are passed on as bounds.

T1 sequence (P9WPP7 whole entry): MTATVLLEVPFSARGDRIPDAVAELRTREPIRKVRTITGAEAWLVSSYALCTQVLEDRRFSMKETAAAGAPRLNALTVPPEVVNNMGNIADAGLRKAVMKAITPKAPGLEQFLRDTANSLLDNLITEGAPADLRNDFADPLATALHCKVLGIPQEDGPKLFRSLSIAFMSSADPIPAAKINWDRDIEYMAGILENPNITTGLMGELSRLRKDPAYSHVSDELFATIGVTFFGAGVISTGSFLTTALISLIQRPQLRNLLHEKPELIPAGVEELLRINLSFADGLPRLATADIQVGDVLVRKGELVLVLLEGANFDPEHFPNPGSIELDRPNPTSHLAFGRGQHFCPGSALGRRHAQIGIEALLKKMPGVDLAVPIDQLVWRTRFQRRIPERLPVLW

`c1ccc(-n2cc(Cn3ccnc3)c(-c3ccncc3)n2)cc1` [10 a, 4‐(4‐((1H‐Imidazol‐1‐yl)methyl)‐1‐phenyl‐1H‐pyrazol‐3‐yl)pyridine] returned a melting point of 80 to 82 °C. Moreover, in data set [1], the Soret peak shift was in the range of 416.5 to 419 nm and the Kd amounted to 60.5 ± 10.5 µM. Moreover, the MIC in data set [2] (setting [5]) lay within 12.5 to 25 µg/mL (≈ 41.5 to 83 µM). The same compound had an MIC in data set [2] of 12.5 µg/mL (≈ 41.5 µM).
In the case of `c1ccc(-n2cc(Cn3ccnc3)c(-c3cccnc3)n2)cc1` [10 b, 3‐(4‐((1H‐Imidazol‐1‐yl)methyl)‐1‐phenyl‐1H‐pyrazol‐3‐yl)pyridine], in data set [1], the Soret peak shift is on record as 416.5 to 421 nm and the Kd was 53.6 ± 6.8 µM. For the same compound, the MIC in data set [2] (setting [5]) is 12.5 to 25 µg/mL (≈ 41.5 to 83 µM). Besides, the MIC in data set [2] turned out to be 12.5 µg/mL (≈ 41.5 µM).
`CCc1ccc(-c2nn(-c3ccccc3)cc2Cn2ccnc2)cc1` [10 c, 4‐((1H‐Imidazol‐1‐yl)methyl)‐3‐(4‐ethylphenyl)‐1‐phenyl‐1H‐pyrazole] showed a melting point of 74 to 76 °C. For the same compound, in data set [1], the Soret peak shift is 416.5 to 420 nm and the Kd stood at 18.3 ± 3.4 µM. In data set [2] (setting [5]), the minimal inhibitory concentration (MIC) came to 1.56 µg/mL (≈ 4.76 µM).
Consider `CCCc1ccc(-c2nn(-c3ccccc3)cc2Cn2ccnc2)cc1` [10 d, 4‐((1H‐Imidazol‐1‐yl)methyl)‐1‐phenyl‐3‐(4‐propylphenyl)‐1H‐pyrazole], for which, in data set [1], the Soret peak shift is 416.5 to 420 nm and the Kd amounted to 53.7 ± 5.9 µM. In addition, the MIC in data set [2] (setting [5]) worked out at 0.781 µg/mL (≈ 2.28 µM).
For the compound `CC(C)c1ccc(-c2nn(-c3ccccc3)cc2Cn2ccnc2)cc1` [10 e, 4‐((1H‐Imidazol‐1‐yl)methyl)‐3‐(4‐isopropylphenyl)‐1‐phenyl‐1H‐pyrazole], in data set [1], the Soret peak shift is listed as 416.5 to 423 nm, the Kd was found to be 22.5 ± 3.5 µM and the “Soret maxima shifting by” value amounted to 6.5 nm. Also, the MIC in data set [2] (setting [5]) is 1.56 µg/mL (≈ 4.56 µM).
For `CC(C)Cc1ccc(-c2nn(-c3ccccc3)cc2Cn2ccnc2)cc1` [10 f, 4‐((1H‐Imidazol‐1‐yl)methyl)‐3‐(4‐isobutylphenyl)‐1‐phenyl‐1H‐pyrazole], in data set [1], the Soret peak shift lay within 416.5 to 423.5 nm, the Kd amounted to 0.22 ± 0.01 µM and the “Soret maxima shifting by” value is recorded as 7 nm. Besides, the MIC in data set [2] (setting [5]) was found to be 1.56 µg/mL (≈ 4.38 µM).
Compound `CC(C)(C)c1ccc(-c2nn(-c3ccccc3)cc2Cn2ccnc2)cc1` [10 g, 4‐((1H‐Imidazol‐1‐yl)methyl)‐3‐(4‐(tert‐butyl)phenyl)‐1‐phenyl‐1H‐pyrazole] registered a melting point of 116 to 117 °C. In data set [1], the Soret peak shift was 416.5 to 419.5 nm and the Kd was 4.81 ± 0.31 µM. Also, the MIC in data set [2] (setting [5]) was found to be 1.56 µg/mL (≈ 4.38 µM).
`c1ccc(-c2ccc(-c3nn(-c4ccccc4)cc3Cn3ccnc3)cc2)cc1` [10 h, 4‐((1H‐Imidazol‐1‐yl)methyl)‐3‐([1,1′‐biphenyl]‐4‐yl)‐1‐phenyl‐1H‐pyrazole] came in with a melting point of 114 to 115 °C. Also, in data set [1], the Soret peak shift is on record as 416.5 to 423.5 nm, the Kd turned out to be 2.91 ± 0.14 µM and the “Soret maxima shifting by” value is on record as 7 nm. For the same compound, the MIC in data set [2] (setting [5]) was 3.12 µg/mL (≈ 8.3 µM).
For the compound `c1ccc(-n2cc(Cn3ccnc3)c(-c3ccc4c(c3)OCO4)n2)cc1` [10 i, 4‐((1H‐Imidazol‐1‐yl)methyl)‐3‐(benzo[d][1,3]dioxol‐5‐yl)‐1‐phenyl‐1H‐pyrazole], the melting point lay in the range of 62 to 64 °C. In data set [1], the Soret peak shift was in the range of 416.5 to 422.5 nm and the equilibrium dissociation constant (Kd) came out at 10.1 ± 0.3 µM. For the same compound, the MIC in data set [2] (setting [5]) worked out at 3.12 µg/mL (≈ 9.07 µM).
As to `Clc1[nH]c2ccccc2c1-c1nn(-c2ccccc2)cc1Cn1ccnc1` [10 j, 3‐(4‐((1H‐Imidazol‐1‐yl)methyl)‐1‐phenyl‐1H‐pyrazol‐3‐yl)‐2‐chloro‐1H‐indole], in data set [1], the Soret peak shift lay within 416.5 to 423.5 nm, the Kd is 3.31 ± 0.05 µM and the “Soret maxima shifting by” value was determined as 7 nm. For the same compound, the MIC in data set [2] (setting [5]) was in the range of 12.5 to 25 µg/mL (≈ 33.4 to 66.9 µM). The compound further yielded an MIC in data set [2] of 25 µg/mL (≈ 66.9 µM).
For the compound `c1ccc(-n2cc(Cn3cncn3)c(-c3ccncc3)n2)cc1` [11 a, 4‐(4‐((1H‐1,2,4‐Triazol‐1‐yl)methyl)‐1‐phenyl‐1H‐pyrazol‐3‐yl)pyridine], the melting point was in the range of 98 to 100 °C. For the same compound, in data set [1], the Soret peak shift lay in the range of 416.5 to 417.5 nm and the Kd worked out at 115 ± 27 µM. Besides, the MIC in data set [2] (setting [5]) was above 100 µg/mL.
The corresponding values for `c1ccc(-n2cc(Cn3cncn3)c(-c3cccnc3)n2)cc1` [11 b, 3‐(4‐((1H‐1,2,4‐Triazol‐1‐yl)methyl)‐1‐phenyl‐1H‐pyrazol‐3‐yl)pyridine] are 110 to 112 °C, 416.5 to 417.5 nm, 250 ± 51.6 µM and above 100 µg/mL.
In turn, `O=C(NCCCn1ccnc1)c1cn(-c2ccccc2)nc1-c1ccncc1` [13 a, N‐(3‐(1H‐Imidazol‐1‐yl)propyl)‐1‐phenyl‐3‐(pyridin‐4‐yl)‐1H‐pyrazole‐4‐carboxamide] had a melting point of 104 to 106 °C. Further, in data set [1], the Soret peak shift was 416.5 to 423.5 nm, the dissociation constant Kd was determined as 83.2 ± 3.9 µM and the “Soret maxima shifting by” value stood at 7 nm. Besides, the MIC in data set [2] (setting [5]) came to 100 µg/mL (≈ 269 µM).
The compound `O=C(NCCCn1ccnc1)c1cn(-c2ccccc2)nc1-c1cccnc1` [13 b, N‐(3‐(1H‐Imidazol‐1‐yl)propyl)‐1‐phenyl‐3‐(pyridin‐3‐yl)‐1H‐pyrazole‐4‐carboxamide] came in with a melting point of 80 to 82 °C. Also, in data set [1], the Soret peak shift lay within 416.5 to 417.5 nm and binding was put at a Kd of 85.6 ± 12.4 µM. In addition, the MIC in data set [2] (setting [5]) is above 100 µg/mL.
`O=C(NCc1ccncc1)c1cn(-c2ccccc2)nc1-c1ccncc1` [14 a, 1‐Phenyl‐3‐(pyridin‐4‐yl)‐N‐(pyridin‐4‐ylmethyl)‐1H‐pyrazole‐4‐carboxamide] returned a melting point of 206 to 208 °C. Further, in data set [1], the Soret peak shift is 416.5 to 419.5 nm and the Kd amounted to 219 ± 13.6 µM. For the same compound, the minimal inhibitory concentration (MIC) in data set [2] (setting [5]) was above 100 µg/mL.
The corresponding values for `O=C(NCc1ccncc1)c1cn(-c2ccccc2)nc1-c1cccnc1` [14 b, 1‐Phenyl‐3‐(pyridin‐3‐yl)‐N‐(pyridin‐4‐ylmethyl)‐1H‐pyrazole‐4‐carboxamide] are 206 to 208 °C, 416.5 to 417.5 nm, 39 ± 8.2 µM and above 100 µg/mL.
Consider `Clc1ccccc1C(c1ccccc1)(c1ccccc1)n1ccnc1` [Clotrimazole, clotrimazole, reference compound], for which the MIC in data set [2] (setting [5]) came to 20 µg/mL (≈ 58 µM).
As to `c1ccc(-c2nn(-c3ccccc3)cc2Cn2ccnc2)cc1` [Compound 1, (1,3‐diphenyl)‐4‐((1,3‐imidazol‐1‐yl)methyl)‐1H‐pyrazole], in data set [3], the Soret peak shift is 416.5 to 424 nm and the Kd was 2.6 ± 0.2 µM. Further, the minimum inhibitory concentration (MIC) in data set [4] is 12.5 µg/mL (≈ 41.6 µM).
For the compound `c1ccc(-c2nn(-c3ccccc3)cc2Cn2cncn2)cc1` [Compound 2, 1‐((1,3‐diphenyl‐1H‐pyrazol‐4‐yl)methyl)‐1H‐1, 2, 4triazole], in data set [3], the Soret peak shift is 416.5 to 422.5 nm and the Kd is 73.5 ± 0.7 µM. Also, the MIC in data set [4] was 50 µg/mL (≈ 166 µM).
Regarding `COc1ccc(-n2nc(Cn3ccnc3)cc2C)cc1` [Compound 23, 3‐((1H‐Imidazol‐1‐yl)methyl)‐1‐(4‐methoxyphenyl)‐5‐methyl‐1H‐pyrazole], in data set [1], the Soret peak shift fell in the range of 416.5 to 418 nm and binding was put at a Kd of 34.5 ± 4.8 µM.
In the case of `COc1ccc(-n2nc(Cn3cncn3)cc2C)cc1` [Compound 24, 1‐((1‐(4‐Methoxyphenyl)‐5‐methyl‐1H‐pyrazol‐3‐yl)methyl)‐1H‐1,2,4‐triazole], in data set [1], the Soret peak shift lay within 416.5 to 418 nm and the Kd came to 105 ± 7 µM. Further, the MIC in data set [2] (setting [5]) is above 100 µg/mL.
On to `COc1ccc(-n2nc(C)cc2Cn2ccnc2)cc1` [Compound 25, 5‐((1H‐Imidazol‐1‐yl)methyl)‐1‐(4‐methoxyphenyl)‐3‐methyl‐1H‐pyrazole], for which, in data set [1], the Soret peak shift is 416.5 to 418.5 nm and binding was put at a Kd of 22.9 ± 0.2 µM. Besides, the minimum inhibitory concentration (MIC) in data set [2] (setting [5]) is 25 µg/mL (≈ 93.2 µM).
Consider `COc1ccc(-n2nc(C)cc2Cn2cncn2)cc1` [Compound 26, 1‐((1‐(4‐Methoxyphenyl)‐3‐methyl‐1H‐pyrazol‐5‐yl)methyl)‐1H‐1,2,4‐triazole], for which the melting point is 47 to 48 °C. In data set [1], this compound showed a dissociation constant (Kd) of 98.3 ± 7.4 µM. Also, the MIC in data set [2] (setting [5]) is 100 µg/mL (≈ 371 µM).
Turning to `OC(Cn1cncn1)(Cn1cncn1)c1ccc(F)cc1F` [Fluconazole, fluconazole, reference compound], the MIC in data set [2] (setting [5]) is above 100 µg/mL.
Regarding `Clc1ccc(COC(Cn2ccnc2)c2ccc(Cl)cc2Cl)cc1` (centres unmarked) [econazole], the “Soret peak shift to” value in data set [3] is 421–423.5 nm.
As to `CC(=O)N1CCN(c2ccc(OCC3COC(Cn4ccnc4)(c4ccc(Cl)cc4Cl)O3)cc2)CC1` (centres unmarked) [ketoconazole], the “Soret peak shift to” value in data set [3] is 421–423.5 nm.
Regarding `Clc1ccc(COC(Cn2ccnc2)c2ccc(Cl)cc2Cl)c(Cl)c1` (centres unmarked) [miconazole], the “Soret peak shift to” value in data set [3] is recorded as 421–423.5 nm.

The Kd is the constant that tells how readily two partners part at equilibrium. By MIC is commonly meant the lowest concentration that inhibits growth of the organism. For orientation: melting point means the temperature, or range, at which the solid turns liquid.
